pIC50: −log10 of the molar value.

Experiment [1] concerns the target T1, N-terminally GST-tagged mTOR (Homo sapiens, UniProt P42345).
T1 construct: truncated version: amino acids 1360-2549; purchased Life Technologies PR8683B
The experiment can be described thus: In vitro mTOR binding assay (LanthaScreen TR-FRET). As to conditions: LanthaScreen kinase binding, Tracer 314; read-out: mTOR IC50 (binding). Background: TR-FRET usually uses a lanthanide donor and a delayed reading to cut background.
Protocol: A 10-point 4-fold serial dilution (highest concentration at 10 μmol/L and lowest concentration at 40 μmol/L) of each compound was tested for mTOR binding in duplicate in a 384-well plate. […] After 30 min incubation at RT, time-resolved FRET was measured with a Synergy 4 multi-mode microplate reader (Biotek Instruments) using the following settings: 100 microsecs delay before data collection, 200 microsecs time for data collection, 10 measurements per data point.
IC50 values of each compound were determined by plotting the emission ratio versus the compound concentrations (in logarithmic scale) and then by fitting a sigmoidal dose-response curve with variable slope to the data using GraphPad™ Prism.

A further experiment concerns pPKB S473 in A2058 cells. In words: In-cell Western blot, pPKB S473. It counts as cell-based. As to conditions: Homo sapiens, 1 hour treatment.
The subject of experiment [2] is pS6 S235/S236 in A2058 cells. The experiment can be described thus: In-cell Western blot, pS6 S235/S236. It counts as cell-based. As to conditions: Homo sapiens, 1 hour treatment.
Protocol: (§1) Cells are fixed with 4% paraformaldehyde for 30 minutes at room temperature, washed 2 times with 1% BSA in PBS, permeabilized with 0.1% Triton X-100 in PBS/1% BSA for 30 minutes at room temperature and blocked with 5% goat serum in PBS/1% BSA/0.1% Triton X-100 for 30 minutes at room temperature. […] Cells are washed 3 times 5 minutes with PBS/1% BSA/0.1% triton and plate scanned with the Odyssey Infrared Scanning system using both 700 and 800 nm channels. […] To correct for background staining in the data analysis wells are treated only with secondary antibodies.
(§2) For data analysis the mean background signal from channel 700 nm and 800 nm are subtracted from each signal in channel 700 nm and 800 nm, respectively.
(§3) IC50 values of each compound are determined by plotting the normalized pPBK S473 and pS6 S235/S236 signals, respectively, versus the compound concentrations (in logarithmic scale) and then by fitting a sigmoidal dose-response curve with variable slope to the data using GraphPad™ Prism.

T1 sequence (P42345 1360-2549): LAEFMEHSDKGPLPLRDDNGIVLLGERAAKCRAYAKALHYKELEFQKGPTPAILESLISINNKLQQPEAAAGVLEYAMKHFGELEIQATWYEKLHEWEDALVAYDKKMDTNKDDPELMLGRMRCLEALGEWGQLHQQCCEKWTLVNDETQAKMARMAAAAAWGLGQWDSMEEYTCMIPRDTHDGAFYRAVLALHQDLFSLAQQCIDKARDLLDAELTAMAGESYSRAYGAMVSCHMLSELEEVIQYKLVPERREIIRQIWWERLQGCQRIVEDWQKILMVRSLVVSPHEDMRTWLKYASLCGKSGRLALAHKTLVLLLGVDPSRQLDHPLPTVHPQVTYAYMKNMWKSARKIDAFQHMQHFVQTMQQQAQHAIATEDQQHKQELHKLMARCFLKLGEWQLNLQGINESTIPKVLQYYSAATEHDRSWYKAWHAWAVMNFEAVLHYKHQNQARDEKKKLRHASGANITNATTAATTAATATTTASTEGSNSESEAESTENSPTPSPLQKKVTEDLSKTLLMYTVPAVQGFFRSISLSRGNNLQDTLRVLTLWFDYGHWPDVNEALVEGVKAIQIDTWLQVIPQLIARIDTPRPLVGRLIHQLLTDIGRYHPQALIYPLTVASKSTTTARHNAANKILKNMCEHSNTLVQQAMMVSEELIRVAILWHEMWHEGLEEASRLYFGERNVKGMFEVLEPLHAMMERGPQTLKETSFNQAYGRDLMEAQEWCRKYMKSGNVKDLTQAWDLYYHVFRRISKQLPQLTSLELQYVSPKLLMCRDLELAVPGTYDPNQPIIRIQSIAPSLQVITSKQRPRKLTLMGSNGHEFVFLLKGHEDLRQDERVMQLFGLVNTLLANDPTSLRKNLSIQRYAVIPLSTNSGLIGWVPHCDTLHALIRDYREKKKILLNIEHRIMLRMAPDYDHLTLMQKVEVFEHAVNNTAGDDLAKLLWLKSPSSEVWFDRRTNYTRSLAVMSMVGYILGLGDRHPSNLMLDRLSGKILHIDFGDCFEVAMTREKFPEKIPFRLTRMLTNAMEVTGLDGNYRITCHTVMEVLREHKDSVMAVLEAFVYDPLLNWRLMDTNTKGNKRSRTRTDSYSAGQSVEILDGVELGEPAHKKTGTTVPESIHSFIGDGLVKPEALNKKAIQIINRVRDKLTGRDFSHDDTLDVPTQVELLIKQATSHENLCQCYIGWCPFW
Protocol for pPKB S473 in A2058 cells: as §1, §2, §3

For the molecule `C[C@@H]1COCCN1c1nc(-c2cnc(N)cc2C(F)F)nc(N2CCOCC23CCC3)n1` [Compound 88, 4-(difluoromethyl)-5-[4-[(3R)-3-methylmorpholin-4-yl]-6-(8-oxa-5-azaspiro[3.5]nonan-5-yl)-1,3,5-triazin-2-yl]pyridin-2-amine], the pIC50 in experiment [1] was 7.74; with pPKB S473 in A2058 cells (A2058, 1 h), 6.57; in experiment [2] (A2058, 1 h), 6.72.
With `C[C@@H]1COCCN1c1nc(-c2cnc(N)cc2C(F)F)nc(N2C3COCC2COC3)n1` [Compound 47, 4-(difluoromethyl)-5-[4-(3,7-dioxa-9-azabicyclo[3.3.1]nonan-9-yl)-6-[(3R)-3-methylmorpholin-4-yl]-1,35-triazin-2-yl]pyridin-2-amine], the pIC50 was 7.54 in experiment [1]; 6.33 with pPKB S473 in A2058 cells (A2058, 1 h); 6.75 in experiment [2] (A2058, 1 h).
As to `C[C@H]1COCCN1c1nc(-c2cnc(N)cc2C(F)F)cc(N2CCOCC2)n1` [Compound 31, (S)-4-(difluoromethyl)-5-(2-(3-methylmorpholino)-6-morpholinopyrimidin-4-yl)pyridin-2-amine], the pIC50 was 7.82 in experiment [1], 6.84 in the experiment with pPKB S473 in A2058 cells and 6.91 in experiment [2].
As for `Nc1cc(C(F)(F)F)c(-c2cc(N3CCOCC3)nc(N3C4CCC3COC4)n2)cn1` [reference compound], the negative-log IC50 (pIC50) in experiment [1] was 7.06; with pPKB S473 in A2058 cells (A2058, 1 h) it was 6.25; in experiment [2] (A2058, 1 h), 6.25.
Take `Nc1cc(C(F)(F)F)c(-c2nc(N3CCOCC3)cc(N3CCOCC3)n2)cn1` [reference compound]: the pIC50 is 6.44 in experiment [1], 6.26 in the experiment with pPKB S473 in A2058 cells and 6.18 in experiment [2].
Take `Nc1cc(C(F)F)c(-c2nc(N3CCNCC3)nc(N3CCOCC3)n2)cn1` [Compound 12]: the pIC50 in experiment [1] was 6.27; in the experiment with pPKB S473 in A2058 cells (A2058, 1 h), 6.68; in experiment [2] (A2058, 1 h), 6.29.
Take `Nc1cc(C(F)F)c(-c2nc(N3CCOCC3)nc(N3CCSCC3)n2)cn1` [Compound 20]: the pIC50 was 7.89 in experiment [1]; 6.84 in the experiment with pPKB S473 in A2058 cells (A2058, 1 h); 6.60 in experiment [2] (A2058, 1 h).
Turning to `Nc1ncc(-c2nc(N3CCOCC3)cc(N3CCOCC3)n2)c(C(F)(F)F)n1` [reference compound], the pIC50 was 5.72 in experiment [1]; 6.76 with pPKB S473 in A2058 cells (A2058, 1 h); 6.43 in experiment [2] (A2058, 1 h).
On the same counts, the results for `C[C@@H]1COCCN1c1nc(-c2cnc(N)cc2C(F)F)nc(N2CCOCC2(C)C)n1` [Compound 45, 4-(difluoromethyl)-5-[4-(3,3-dimethylmorpholin-4-yl)-6-[(3R)-3-methylmorpholin-4-yl]-1,3,5-triazin-2-yl]pyridin-2-amine] are 8.15, 6.63 and 7.03.
Regarding `C[C@H]1COCCN1c1cc(-c2cnc(N)cc2C(F)(F)F)nc(N2CCOC[C@@H]2C)n1` [reference compound], the pIC50 in experiment [1] is 6.82; in the experiment on pPKB S473 in A2058 cells (A2058, 1 h), 6.34; in experiment [2] (A2058, 1 h) it was 6.26.
In the case of `C[C@@H]1COCCN1c1nc(-c2cnc(N)cc2C(F)F)nc(N2[C@@H](C)COC[C@@H]2C)n1` [Compound 79, 4-(difluoromethyl)-5-[4-[(3S,5S)-3,5-dimethylmorpholin-4-yl]-6-[(3R)-3-methylmorpholin-4-yl]-1,3,5-triazin-2-yl]pyridin-2-amine], the pIC50 in experiment [1] is 8.00; in the experiment on pPKB S473 in A2058 cells (A2058, 1 h), 6.70; in experiment [2] (A2058, 1 h), 6.87.
`C[C@H]1COC[C@H](C)N1c1nc(-c2cnc(N)cc2C(F)F)nc(N2[C@@H](C)COC[C@@H]2C)n1` [Compound 83, 5-[4,6-bis[(3S,5S)-3,5-dimethylmorpholin-4-yl]-1,3,5-triazin-2-yl]-4-(difluoromethyl)pyridin-2-amine]: the pIC50 in experiment [1] is 7.49; in the experiment on pPKB S473 in A2058 cells, 6.42; in experiment [2], 6.53.
As for `C[C@@H]1COCCN1c1nc(-c2cnc(N)cc2C(F)F)nc(N2[C@H](C)COC[C@H]2C)n1` [Compound 78, 4-(difluoromethyl)-5-[4-[(3R,5R)-3,5-dimethylmorpholin-4-yl]-6-[(3R)-3-methylmorpholin-4-yl]-1,3,5-triazirin-2-yl]pyridin-2-amine], the pIC50 in experiment [1] was 7.42; with pPKB S473 in A2058 cells (A2058, 1 h) it was 6.30; in experiment [2] (A2058, 1 h) it was 6.41.
For the molecule `Nc1ncc(-c2nc(N3CCNCC3)nc(N3CCOCC3)n2)c(C(F)F)n1` [Compound 13], the pIC50 was 5.99 in experiment [1]; 7.37 in the experiment with pPKB S473 in A2058 cells (A2058, 1 h); 6.82 in experiment [2] (A2058, 1 h).
As for `C[C@@H]1COC[C@H](C)N1c1nc(-c2cnc(N)cc2C(F)F)nc(N2CCOCC2(C)C)n1` [Compound 66, 4-(difluoromethyl)-5-[4-(3,3-dimethylmorpholin-4-yl)-6-[(3R,5S)-3,5-dimethylmorpholin-4-yl]-1,3,5-triazin-2-yl]pyridin-2-amine], the pIC50 in experiment [1] is 8.40; with pPKB S473 in A2058 cells (A2058, 1 h), 6.61; in experiment [2] (A2058, 1 h), 6.86.
Take `C[C@H]1COCCN1c1cc(-c2cnc(N)nc2C(F)(F)F)nc(N2CCOCC2)n1` [reference compound]: the pIC50 in experiment [1] was 5.90; in the experiment with pPKB S473 in A2058 cells (A2058, 1 h), 6.54; in experiment [2] (A2058, 1 h) it was 5.99.
Regarding `C[C@@H]1COC[C@H](C)N1c1nc(-c2cnc(N)cc2C(F)F)nc(N2[C@H](C)COC[C@@H]2C)n1` [Compound 40, 5-[4,6-bis[(3R,5S)-3,5-dimethylmorpholin-4-yl]-1,3,5-triazin-2-yl]-4-(difluoromethyl)pyridin-2-amine], the negative-log IC50 (pIC50) was 8.30 in experiment [1], 6.60 in the experiment on pPKB S473 in A2058 cells and 6.80 in experiment [2].
For the molecule `Nc1cc(C(F)F)c(-c2cc(N3CCOCC3)nc(N3C4CCC3COC4)n2)cn1` [Compound 23, 5-(2-(3-oxa-8-azabicyclo[3.2.1]octan-8-yl)-6-morpholinopyrimidin-4-yl)-4-(difluoromethyl)pyridin-2-amine], the negative-log IC50 (pIC50) in experiment [1] is 7.40; in the experiment on pPKB S473 in A2058 cells (A2058, 1 h) it was 6.55; in experiment [2] (A2058, 1 h), 6.64.
In the case of `Nc1ncc(-c2cc(N3CCOCC3)nc(N3C4CCC3COC4)n2)c(C(F)F)n1` [Compound 24, 2-(3-oxa-8-azabicyclo[3.2.1]octan-8-yl)-4′-(difluoromethyl)-6-morpholino-[4,5′-bipyrimidin]-2′-amine], the pIC50 in experiment [1] was 7.46; with pPKB S473 in A2058 cells (A2058, 1 h) it was 7.08; in experiment [2] (A2058, 1 h), 6.78.
For `CC1(C)COCCN1c1nc(-c2cnc(N)cc2C(F)F)nc(N2CCOCC2)n1` [Compound 42, 4-(difluoromethyl)-5-[4-(3,3-dimethylmorpholin-4-yl)-6-morpholino-1,3,5-triazin-2-yl]pyridin-2-amine], in that order: 8.52, 7.27 and 7.35.
As for `COC[C@@H]1COCCN1c1nc(-c2cnc(N)cc2C(F)F)nc(N2CCOC[C@H]2C)n1` [Compound 46, 4-(difluoromethyl)-5-[4-[(3R)-3-(methoxymethyl)morpholin-4-yl]-6-[(3R)-3-methylmorpholin-4-yl]-1,3,5-triazin-2-yl]pyridin-2-amine], the pIC50 in experiment [1] was 7.44; in the experiment on pPKB S473 in A2058 cells (A2058, 1 h) it was 6.02; in experiment [2] (A2058, 1 h), 6.37.
Take `C[C@H]1COCCN1c1cc(-c2cnc(N)cc2C(F)(F)F)nc(N2CCOCC2)n1` [reference compound]: the negative logarithm of the IC50 (pIC50) in experiment [1] was 6.42; in the experiment with pPKB S473 in A2058 cells (A2058, 1 h), 6.05; in experiment [2] (A2058, 1 h) it was 5.96.
As to `Nc1ncc(-c2nc(N3CCOCC3)nc(N3CCSCC3)n2)c(C(F)F)n1` [Compound 21], the pIC50 in experiment [1] was 7.27; in the experiment on pPKB S473 in A2058 cells (A2058, 1 h) it was 7.24; in experiment [2] (A2058, 1 h) it was 6.67.
On to `C[C@H]1COCCN1c1nc(-c2cnc(N)cc2C(F)(F)F)cc(N2CCOCC2)n1` [reference compound], for which the negative-log IC50 (pIC50) in experiment [1] is 7.55; in the experiment on pPKB S473 in A2058 cells (A2058, 1 h), 6.61; in experiment [2] (A2058, 1 h) it was 6.64.
As to `C[C@H]1COCCN1c1nc(-c2cnc(N)nc2C(F)(F)F)cc(N2CCOCC2)n1` [reference compound], the pIC50 was 6.73 in experiment [1]; 6.72 with pPKB S473 in A2058 cells (A2058, 1 h); 6.27 in experiment [2] (A2058, 1 h).
Regarding `Nc1ncc(-c2cc(N3CCOCC3)nc(N3CCOCC3)n2)c(C(F)F)n1` [Compound 17, 4′-(difluoromethyl)-2,6-dimorpholino-[4,5′-bipyrimidin]-2′-amine], the pIC50 is 6.81 in experiment [1] and 6.83 in experiment [2].
As to `Nc1cc(C(F)F)c(-c2cc(N3CCOCC3)nc(N3CCOCC3)n2)cn1` [Compound 16, 4-(difluoromethyl)-5-(2,6-dimorpholinopyrimidin-4-yl)pyridin-2-amine], the negative-log IC50 (pIC50) in experiment [1] is 7.52; in the experiment on pPKB S473 in A2058 cells, 6.68; in experiment [2], 6.74.
For `C[C@H]1COCCN1c1nc(-c2cnc(N)nc2C(F)F)cc(N2CCOCC2)n1` [Compound 32, (S)-4′-(difluoromethyl)-2-(3-methylmorpholino)-6-morpholino-[4,5′-bipyrimidin]-2′-amine], in that order: 6.53, 7.00 and 6.41.
For `Nc1cc(C(F)F)c(-c2nc(N3CCOCC3)cc(N3CCOCC3)n2)cn1` [Compound 18, 4-(difluoromethyl)-5-(4,6-dimorpholinopyrimidin-2-yl)pyridin-2-amine], in that order: 7.51, 6.61 and 6.59.
For `C[C@@H]1COCCN1c1nc(-c2cnc(N)cc2C(F)F)nc(N2[C@H](C)COC[C@@H]2C)n1` [Compound 44, 4-(difluoromethyl)-5-[4-[(3R,5S)-3,5-dimethylmorpholin-4-yl]-6-[(3R)-3-methylmorpholin-4-yl]-1,3,5-triazin-2-yl]pyridin-2-amine], the negative logarithm of the IC50 (pIC50) in experiment [1] is 8.30; in the experiment with pPKB S473 in A2058 cells (A2058, 1 h), 6.71; in experiment [2] (A2058, 1 h), 7.06.
For the molecule `C[C@H]1COCCN1c1cc(-c2cnc(N)cc2C(F)F)nc(N2CCOCC2)n1` [Compound 27, (S)-4-(difluoromethyl)-5-(6-(3-methylmorpholino)-2-morpholinopyrimidin-4-yl)pyridin-2-amine], the figures for the pIC50 (in experiment [1]; with pPKB S473 in A2058 cells; in experiment [2]) were 7.19, 6.21 and 6.12, respectively.

Broadly, the pIC50 is the negative decadic logarithm of the IC50, by convention in mol/L.
